The test system of the test is Mus musculus. The test can be described thus: Antiinflammatory activity against mouse assessed as inhibition TPA-induced ear edema at 0.5 mg/kg. In kind it is functional. More on the design: scale not given: the % may be the effect or the level left.
Take `C=C1CC[C@@H](O)[C@]2(C)CC[C@@H](C(C)C)[C@@H](O)[C@@H]12`: the Activity is 29.9%. Consider `CC1=CC[C@@H](O)[C@]2(C)CC[C@H](C(C)C)[C@H](O)[C@@H]12`, for which the Activity came to 28%. Under `C=C1CC[C@@H]2[C@H]([C@H]3[C@H]1CC[C@]3(C)O)C2(C)C` [SPATHULENOL] stands 31.5%.
